Experimental data as given in US6160087A, “Peptides having an amino acid sequence from the fimbrial protein of porphyromonas gingivalis and their uses” (priority 1993, dated 2000).
Where no end group is shown, it is not given here.

Legend:
[1] = test system: anti-Porphyomonas gingivalis fimbria antibodies contained in sera of patients with periodontal disease; test: Assay of the specific antibody in serum using plates coated with peptide-modified BSA (ELISA); type: binding, human; details: average absorbance (405 nm) of 3 specimens, serum diluted 100 times
Procedure: One mg of each peptide synthesized in Example 2 was dissolved in 1 ml of 0.1 M phosphate buffered saline (PBS, pH 6.0), 5 mg of sulfated SMCC (made by Pierce Co.) was added, and the mixture was incubated at 30° C. for 30 minutes to conduct maleimidization, and then subjected to Sephadex G-10 column chromatography, and the first eluate fraction was collected. 7 mg of bovine serum albumin (BSA: made by Wako Pure Chemical Industries, Ltd.) was dissolved in 1 ml of 0.1 M phosphate buffer (pH 6.0), 10 mM EDTA, the solution was mixed with the above maleimidized peptide, and the mixture was subjected to reaction at 30° C. for 1 hour. The resultant peptide-modified BSA was subjected to Sephadex G-50 column chromatography, and the first eluate fraction was collected as a plate-preparing antigen solution.
Then, six kind of peptides were synthesized after the process of Example 2, and a plate-preparing antigen solution was similarly prepared as a control.
Each of the resultant antigen solutions was diluted with 0.1 M carbonate buffer (pH 9.6), 150 mM NaCl to give 100 ml of a solution. 10 μl/well of the solution was put in a polystyrene-made microtiter plate (Immunoplate II; maxisorp type; made by Nunc Co.) and left alone at 4° C. overnight, and washing was conducted three times each with 200 μl/well of PBS, using a microtiter automatic washer (hereafter abbreviated as washer; made by Bio-Rad Laboratories). 250 μl/well of PBS containing 0.1% gelatin (made by Nitta Gelatin Co., Ltd.) was added and the mixture was allowed to stand at 4° C. overnight to block the plate. The blocking solution was removed by absorption, and the plate was dried by a vacuum dryer, put in an aluminum bag, and after sealing the bag, kept at 4° C. for the following assay.
Sera of patients of periodontal disease (n=3) and normal subjects (n=3) were used as samples, and each serum was diluted 100 times with PBS containing 10% bovine serum. 100 μl portions of these dilutions were added to the plates coated with various antigens, respectively, and incubation was conducted at 37° C. for 1 hour. Each plate was washed three times with 200 μl of PBST using the washer, 100 μl of a commercially available […] (diluted 10^3 times)/0.1% Casein/PBST was added as a secondary antibody, and incubation was conducted again at 37° C. for 1 hour. The plate was washed in the same manner as above, 100 μl of an o-phenylenediamine solution was added, incubation was conducted at 37° C. for 30 minutes, 100 μl of 0.1 N sulfuric acid was added to stop the reaction, and then, absorbance (405 nm) was measured by a microplate reader (made by Bio-Rad Laboratories) using the reaction well of no addition of the specimen as a control. The measures values are average absorbances of 3 specimens each of the patient group of periodontal disease and the normal subject group.

Porphyomonas gingivalis = type: in vivo, guinea pig; details: with FCA; for Degree of redness Longest length × shortest length: 500 μg/animal, inoculation on the 28th day, 24 hours later; for Inhibition rate: relative to the FIA inoculation group
Procedure: Each peptide synthesized in Example 2 was administered together with FIA (Freund's incomplete adjuvant) or FCA (Freund's complete adjuvant), as a water-in-oil type emulsifier, into the sole of the right hind leg of a guinea pig in an amount of 500 μg/animal/time. Thereafter, on the 28th day, 200 μl of a suspension of 10^11 cells/ml of the bacterium was intracutaneously inoculated into the right flank of the same guinea pig after the hair at the region was shaved. 24 hours later, the longest length and shortest length of the resultant red coloring were measured, and the product of them was calculated. From the product was calculated the inhibition rate.

[2] = test system: fimbrial protein of Porphyomonas gingivalis; test: Immunization of mice with the peptides: antibody titer in serum or saliva by ELISA; type: in vivo; details: A405 value by the ELISA method, with FCA, 4 weeks later
Procedure: (§1) Each peptide synthesized in Example 2 was dissolved in PBS so as to make the concentration 200 μg/ml, the solution was mixed with the same volume of FCA, and the mixture after emulsification was subcutaneously injected into mice at the back (3 animals per group). 4 weeks later, the antibody titer in the serum or saliva against the peptide was assayed by an ELISA method.
The fimbrial protein of Porphyomonas gingivalis was adsorbed on each well of a 96-well microtiter plate for ELISA, and a dilution of the serum with PBS (1/10^5), a dilution of the saliva with PBS (1/500), or a solution obtained by adding each peptide or the fimbrial protein of Porphyomonas gingivalis is to the dilution of the serum or saliva to cause absorption was put in the well. Reaction was conducted at 37° C. for 1 hour, and then assay was conducted by a usual ELISA method.

[3] = Immunization of mice with the peptides: body weight; type: in vivo; details: mice immunized with FCA emulsion, 3 animals per group
Procedure: as §1

Substance	Antibody titer, Normal subject group [1]	Antibody titer, Patient group with peridontal disease [1]	Degree of redness Longest length × shortest length (Porphyomonas gingivalis) [mm^2]	Inhibition rate (Porphyomonas gingivalis) [%]	Antibody titer Saliva (1/500) After absorption [2]	Antibody titer Saliva (1/500) Before absorption [2]	Antibody titer Serum (1/10^5) After absorption [2]	Antibody titer Serum (1/10^5) Before absorption [2]	Body weight (Average g) [3] [g]
DANYLTGSLT [Comparative peptide, reference compound]	0.145	0.196							
LCVYGKLQKN [Comparative peptide, reference compound]	0.213	0.182							
NHIENDPLKI [Comparative peptide, reference compound]	0.201	0.205							
Peptide 2: synthetic peptide, epitope of the 41 kD fimbrial subunit protein of Porphyomonas gingivalis; sequence in Table 1, not shown (EVKALTTELT)	0.205	0.566	1179	39.5	0.17	0.36	0.15	0.34	26
Peptide 3: synthetic peptide, epitope of the 41 kD fimbrial subunit protein of Porphyomonas gingivalis; sequence in Table 1, not shown (AENQEAAGLI)	0.214	0.623	1155	40.7	0.09	0.37	0.16	0.38	26
Peptide 4: synthetic peptide, epitope of the 41 kD fimbrial subunit protein of Porphyomonas gingivalis; sequence in Table 1, not shown (AAGLIMTAEP)	0.197	0.941	851	56.3	0.12	0.49	0.13	0.52	27
Peptide 5: synthetic peptide, epitope of the 41 kD fimbrial subunit protein of Porphyomonas gingivalis; sequence in Table 1, not shown (TGSLTTFNGA)	0.165	0.760	1063	45.4	0.15	0.42	0.11	0.45	28
Peptide 6: synthetic peptide, epitope of the 41 kD fimbrial subunit protein of Porphyomonas gingivalis; sequence in Table 1, not shown (TFNGAYTPAN)	0.141	0.675	1112	42.9	0.11	0.39	0.12	0.41	26
Peptide 8: synthetic peptide, epitope of the 41 kD fimbrial subunit protein of Porphyomonas gingivalis; sequence in Table 1, not shown (ANGGTIHPTI)	0.182	0.935	1022	47.5	0.14	0.45	0.11	0.49	25
Peptide 9: synthetic peptide, epitope of the 41 kD fimbrial subunit protein of Porphyomonas gingivalis; sequence in Table 1, not shown (EGKTYYPVLV)	0.186	0.546	1265	35.0	0.13	0.34	0.13	0.32	26
RTLVVMANTG [Comparative peptide, reference compound]	0.161	0.199							
VMVYNGEQQE [Comparative peptide, reference compound]	0.172	0.165							
WLSRNYVAPA [Comparative peptide, reference compound]	0.204	0.210							
